Source: US8541460B2, “PDK-1/Akt signaling inhibitors” (The Ohio State University, priority 2003, dated 2013)

Key:
immunoprecipitated Akt = assay: Direct inhibition of immunoprecipitated Akt kinase activity; format: biochemical, human
COLO 205 = assay: NCI DTP cell line screen (SRB), Colon Cancer; format: cell-based, human
Description: (§1) Screening of compounds 70 and 71 against several cancer cell lines The human tumor cell lines of the cancer screening panel are grown in RPMI 1640 medium containing 5% fetal bovine serum and 2 mM L-glutamine. For a typical screening experiment, cells are inoculated into 96 well microtiter plates in 100 μL at plating densities ranging from 5,000 to 40,000 cells/well depending on the doubling time of individual cell lines. After cell inoculation, the microtiter plates are incubated at 37° C., 5% CO2, 95% air and 100% relative humidity for 24 h prior to addition of experimental drugs.
(§2) After 24 h, two plates of each cell line are fixed in situ with TCA, to represent a measurement of the cell population for each cell line at the time of drug addition (Tz). Experimental drugs are solubilized in dimethyl sulfoxide at 400-fold the desired final maximum test concentration and stored frozen prior to use. At the time of drug addition, an aliquot of frozen concentrate is thawed and diluted to twice the desired final maximum test concentration with complete medium containing 50 μg/ml gentamicin. Additional four, 10-fold or ½ log serial dilutions are made to provide a total of five drug concentrations plus control. Aliquots of 100 μl of these different drug dilutions are added to the appropriate microtiter wells already containing 100 μl of medium, resulting in the required final drug concentrations.
(§3) Following drug addition, the plates are incubated for an additional 48 h at 37° C., 5% CO2, 95% air, and 100% relative humidity. For adherent cells, the assay is terminated by the addition of cold TCA. Cells are fixed in situ by the gentle addition of 50 μl of cold 50% (w/v) TCA (final concentration, 10% TCA) and incubated for 60 minutes at 4° C. The supernatant is discarded, and the plates are washed five times with tap water and air dried. Sulforhodamine B (SRB) solution (100 μl) at 0.4% (w/v) in 1% acetic acid is added to each well, and plates are incubated for 10 minutes at room temperature. After staining, unbound dye is removed by washing five times with 1% acetic acid and the plates are air dried. Bound stain is subsequently solubilized with 10 mM trizma base, and the absorbance is read on an automated plate reader at a wavelength of 515 nm. For suspension cells, the methodology is the same except that the assay is terminated by fixing settled cells at the bottom of the wells by gently adding 50 μl of 80% TCA (final concentration, 16% TCA). Using the seven absorbance measurements [time zero, (Tz), control growth, (C), and test growth in the presence of drug at the five concentration levels (Ti)], the percentage growth is calculated at each of the drug concentrations levels. Percentage growth inhibition is calculated as: [(Ti−Tz)/(C−Tz)]×100 for concentrations for which Ti>/=Tz [(Ti−Tz)/Tz]×100 for concentrations for which Ti<Tz
(§4) Three dose response parameters are calculated for each experimental agent. […] The drug concentration resulting in total growth inhibition (TGI) is calculated from Ti=Tz. […] Values are calculated for each of these three parameters if the level of activity is reached; however, if the effect is not reached or is exceeded, the value for that parameter is expressed as greater or less than the maximum or minimum concentration tested.
(§5) The methods described were used to test compounds 70 and 71 on a panel of sixty cell lines under a screening service provided by the Developmental Therapeutics Program at the National Institutes of Health. Shown in FIG. 1C are 1, RPMI-8226 leukemia cells; 2; NCI-H322M non-small cell lung cancer cells; 3, HT29 colon cancer cells; 4, U251 CNS cancer cells; 5, SK-MEL-28 melanoma cancer cells; 6, SK-OV-3 ovarian cancer cells; 7, RXF 393 renal cancer cells; 8, PC-3 prostate cancer cells; 9, MDA-MB-231 breast cancer cells.

HCT-15 = assay: NCI DTP cell line screen (SRB), Colon Cancer; format: cell-based
LOX IMVI = assay: NCI DTP cell line screen (SRB), Melanoma; format: cell-based
Description: as §1, §2, §3, §4, §5

M14 = assay: NCI DTP cell line screen (SRB), Melanoma; format: cell-based
Description: as §1, §2, §3, §4, §5

SK-MEL-28 = assay: NCI DTP cell line screen (SRB), Melanoma; format: cell-based
Description: as §1, §2, §3, §4, §5

SK-MEL-2 = assay: NCI DTP cell line screen (SRB), Melanoma; format: cell-based
Description: as §1, §2, §3, §4, §5

SK-MEL-5 = assay: NCI DTP cell line screen (SRB), Melanoma; format: cell-based, human
Description: as §1, §2, §3, §4, §5

UACC-62 = assay: NCI DTP cell line screen (SRB), Melanoma; format: cell-based

Structure (SMILES): NCC(=O)Nc1ccc(-n2nc(C(F)(F)F)cc2-c2ccc3c(ccc4ccccc43)c2)cc1 [Compound 70, 2-Amino-N-{4-[5-(2-phenanthrenyl)-3-(trifluoromethyl)-1H-pyrazol-1-yl]-phenyl}-acetamide]
- direct inhibitory effect on immunoprecipitated Akt activity (immunoprecipitated Akt): no appreciable direct inhibition
- Percent Growth (COLO 205; Log10 Concentration −4.0): 1%
- Percent Growth (COLO 205; Log10 Concentration −5.0): −53%
- Percent Growth (COLO 205; Log10 Concentration −6.0): 58%
- Percent Growth (COLO 205; Log10 Concentration −7.0): 87%
- Percent Growth (COLO 205; Log10 Concentration −8.0): 89%
- TGI (HCT-15): 3.19E−06
- Percent Growth (HCT-15; Log10 Concentration −5.0): −47%
- Percent Growth (HCT-15; Log10 Concentration −6.0): 47%
- Percent Growth (HCT-15; Log10 Concentration −7.0): 54%
- Percent Growth (HCT-15; Log10 Concentration −8.0): 81%
- TGI (LOX IMVI): 3.07E−06
- Percent Growth (LOX IMVI; Log10 Concentration −5.0): −50%
- Percent Growth (LOX IMVI; Log10 Concentration −6.0): 48%
- Percent Growth (LOX IMVI; Log10 Concentration −7.0): 76%
- Percent Growth (LOX IMVI; Log10 Concentration −8.0): 105%
- TGI (M14): 5.37E−06
- Percent Growth (M14; Log10 Concentration −4.0): −19%
- Percent Growth (M14; Log10 Concentration −5.0): −33%
- Percent Growth (M14; Log10 Concentration −6.0): 90%
- Percent Growth (M14; Log10 Concentration −7.0): 98%
- Percent Growth (M14; Log10 Concentration −8.0): 98%
- TGI (SK-MEL-28): 2.64E−06
- Percent Growth (SK-MEL-28; Log10 Concentration −4.0): −59%
- Percent Growth (SK-MEL-28; Log10 Concentration −5.0): −87%
- Percent Growth (SK-MEL-28; Log10 Concentration −6.0): 63%
- Percent Growth (SK-MEL-28; Log10 Concentration −7.0): 83%
- Percent Growth (SK-MEL-28; Log10 Concentration −8.0): 94%
- TGI (SK-MEL-2): 5.40E−06
- Percent Growth (SK-MEL-2; Log10 Concentration −4.0): −28%
- Percent Growth (SK-MEL-2; Log10 Concentration −5.0): −37%
- Percent Growth (SK-MEL-2; Log10 Concentration −6.0): 100%
- Percent Growth (SK-MEL-2; Log10 Concentration −7.0): 117%
- Percent Growth (SK-MEL-2; Log10 Concentration −8.0): 114%
- Percent Growth (SK-MEL-5; Log10 Concentration −4.0): −34%
- Percent Growth (SK-MEL-5; Log10 Concentration −5.0): −75%
- Percent Growth (SK-MEL-5; Log10 Concentration −6.0): 69%
- Percent Growth (SK-MEL-5; Log10 Concentration −7.0): 88%
- Percent Growth (SK-MEL-5; Log10 Concentration −8.0): 91%
- TGI (SK-MEL-5; in M (unit assumed)): 3.02E−06
- TGI (UACC-62): 3.15E−06
- Percent Growth (UACC-62; Log10 Concentration −4.0): −46%
- Percent Growth (UACC-62; Log10 Concentration −5.0): −80%
- Percent Growth (UACC-62; Log10 Concentration −6.0): 79%
- Percent Growth (UACC-62; Log10 Concentration −7.0): 94%
- Percent Growth (UACC-62; Log10 Concentration −8.0): 105%
